{"source": "patent US9616098B2", "about": "“Formulations of vancomycin” (SCIDOSE, LLC, priority 2013, dated 2017)", "origin": "cited, not measured here"}
{"compound": "CN[C@H](CC(C)C)C(=O)N[C@H]1C(=O)N[C@@H](CC(N)=O)C(=O)N[C@H]2C(=O)N[C@H]3C(=O)N[C@H](C(=O)N[C@H](C(=O)O)c4cc(O)cc(O)c4-c4cc3ccc4O)[C@H](O)c3ccc(c(Cl)c3)Oc3cc2cc(c3O[C@@H]2O[C@H](CO)[C@@H](O)[C@H](O)[C@H]2O[C@H]2C[C@](C)(N)[C@H](O)[C@H](C)O2)Oc2ccc(cc2Cl)[C@H]1O", "note": "[Vancomycin]", "values": [{"measurement": "stable in water after reconstitution", "value": "approximately 24 hours"}]}
